In patent US20150087723A1, “MICROBIAL COMPOSITION” (Rohm and Haas Company, priority 2011, published 2015):
Where “and” joins values, the source holds several entries; their conditions need not be identical. Identical values can stand only once. Like-named read-outs stand apart in the source and are kept apart here.

Assays:
Type in all cases: cell-based
[1] = system: Escherichia coli (E. coli—ATCC #10536); assay: Synergy test: high resolution MBC microtiter plate assay, phosphate buffer containing 35% dipropylene glycol, 15 seconds contact; conditions: E. coli 10536; for SI (Synergy Index = Qa/QA + Qb/QB): at Qa and Qb, <1 synergy, 1 additivity, >1 antagonism; for Qb: MBC of the second component (B) acting alone (QB): component alone (Qa = 0), complete kill in 15 seconds
From the text: One measure of synergy is -the industrially accepted method described by Kull, F. C.; Eisman, P. C.; Sylwestrowicz, H. D. and Mayer, R. L., in Applied Microbiology 9:538-541 (1961), using the ratio determined by the formula:
Qa/QA+Qb/QB=Synergy Index (“SI”)
wherein: QA=concentration of compound A (first component) in percent, acting alone, which produced an end point (MBC of Compound A). Qa =concentration of compound A in percent, in the mixture, which produced an end point. QB=concentration of compound B (second component) in percent, acting alone, which produced an end point (MBC of Compound B). Qb=concentration of compound B in percent, in the mixture, which produced an end point.
When the sum of Qa/QA and Qb/QB is greater than one, antagonism is indicated. […] The lower the SI, the greater is the synergy shown by that particular mixture. The minimum biocidal concentration (MBC) of a microbicide is the lowest concentration tested under a specific set of conditions that provides complete kill of the tested microorganisms.
Synergy tests were-conducted using standard microtiter plate assays with, phosphate buffer containing 35% dipropylene glycol (DPG). In this method, a wide range of combinations of chemicals was tested by conducting high resolution MBC assays of Component (A) in the presence of various concentrations of Component (B). High resolution MBCs were determined by adding varying amounts of microbicide to one column of a microtiter plate and doing subsequent ten-fold dilutions using an automated liquid handling system to obtain a series of closely spaced endpoints. The MBC plate was inoculated one column at a time with the test microorganism. An aliquot of the inoculated well was transferred at 15 seconds to a plate containing a neutralizing agent (D/E Neutralizing Broth), mixed and held for 5 minutes before being transferred to a growth plate containing trypticase soy broth (TSB). The TSB plate was incubated at 37° C. and read for the presence/absence of growth at 24 hours. The lowest level tested that provided complete kill (as evidenced by no growth in the microtitre plate) of the test organisms in 15 seconds is the minimum biocidal concentration (MBC).
The synergy of the combinations of the present invention was determined against a bacterium, Escherichia coli (E. coli—ATCC #10536), at a concentration of approximately 1×10^8 bacteria per mL. This microorganism is representative of natural contaminants in many consumer and industrial applications.

[2] = system: Escherichia coli (E. coli—ATCC #10536); assay: Automated assessment of efficacy in model surfactant base (2.85% sodium cocoyl glycinate + 1.85% sodium lauroamphoacetate, pH 10), 15 seconds exposure, OD450/OD590 readout; conditions: for MBC: Escherichia coli, ATCC10536, 15 s; for No. of replicates showing growth (out of 4) / Δ OD 450 nm = OD450 (time = 16 hours) - OD450 (time zero), Mean / Δ OD 590 nm OD590 (time = 16 hours) - OD590 (time zero), Mean: model surfactant solution
Description: Solutions were prepared such that the concentrations of the surfactant components and test actives were 1.1×x the final desired concentration in order to allow for dilution with the bacterial inoculum in the test. The solutions were manually adjusted to pH 10.0 by drop wise addition of sodium hydroxide solution, as measured with a phi meter at ambient temperature.
Tests were conducted using standard microtiter plate assays using an automated liquid handling system, 270 μl of the surfactant test solution was pipetted into each well of the microtitre plate and 30 μl of the bacterial suspension was then added. After exactly 15 seconds of bacterial exposure, a 30 μl volume of bacterial cells was withdrawn and transferred to 270 μl of D/E quench solution. After 5 minutes in the D/E quench, the optical density (OD) was measured for each plate in turn at two specific wavelengths (450 nm and 590 nm). These provide a dual check of antimicrobial activity, as the OD450 reading is specific for the yellow colour of D/E quench when bacterial growth is observed, whereas OD590 is specific for the initial purple colour of the D/E quench which is retained if no bacterial growth is observed. After the time zero OD measurements, plates were then incubated at 37° C. overnight (16 hours) before repeating the OD measurements. Delta OD values were calculated by subtracting […] the initial value at time zero. Bacterial growth is observed as an increase in OD450 and a decrease in ΔOD590. To identify antibacterially efficacious systems (those preventing appreciable bacterial growth after incubation), the following threshold changes in OD readings have been adopted: if (1), OD450 increases by less than 0.2 absorbance unit on incubation and (2). OD590 decreases by less than 0.35 unit on incubation. Conversely, where OD450 increases by more than 0.2 AU and OD590 decreases by more than 0.35 unit after incubation, corresponding to a colour shift from purple to yellow, the test system allows bacterial growth and is not deemed efficacious. Four replicate measurements in the same plate have been made for each test system. The number of replicate wells showing either bacterial growth or no growth is also readily assessed by eye by following the colour change.
Dose responses for individual components and binary mixtures of actives at a used concentration ratio were generated by sequential dilution of liquors with further surfactant solution to obtain a series of endpoints.
In some selected cases, the combinations were also tested at the weight ratio 1:1.

[3] = system: Escherichia coli (10536 strain); assay: Antimicrobial efficacy in water, 15 seconds contact, mean bacterial survival NMBS by colony count
Description: An overnight culture of Escherichia coli (10536 strain) was prepared in 50 ml total volume of TSB broth, grown for ca. 18 hrs at 37° C. and shaken at 150 rpm. 1 ml of this overnight E. coli culture was transferred to 50 ml of fresh TSB broth and incubated at 37° C. at 150 rpm for ca. 4 hours. […] This bacterial stock was used for assaying against antimicrobial actives (in triplicate).
The following assay describes the testing of 8 materials using 6 dilutions across half of a 96-well micro litre plate (MTP). Using this approach it is possible to assay 16 actives (without replicates) with, one full dilution plate, replicating this set up in two halves of the plate columns, 1-6 and 7-12.
IM solutions of the test actives were prepared in dimethylsulphoxide (DMSO).
Aliquots (270 μl) of the materials at 1.11 times the final concentration were dispensed into the wells of the MTP along one column (A1-H1). This MTP was labeled as the “Screening plate”.
In another MTP, labeled as the “Dilution plate”, 270 μl of D/E neutralising solution from DIFCO Composition was added to column 1. The composition of the neutralising solution was as follows: pancreatic digest of casein, 5.0 g/L; Yeast Extract, 2.5 g/L; Dextrose, 10 g/L, sodium thioglycollate, 1.0 g/L, sodium thiosulphate, 6.0 g/L; sodium bisulphite, 2.5 g/L; Polysorbate 80, 5.0 g/L; lecithin 7.0 g/L; bromocresol purple, 0.02 g/L with a pH is the range 7.6±0.2.
270 μl of tryptone diluent solution was added to all the remaining wells of the Dilution MTP (columns 2-6).
Bacterial stock (30 μl) was then added to the prepared 270 μl of the solution of actives in the Screening Plate and mixed, using a multichannel pipette with 8 tips to aspirate and dispense the same volume of bacterial stock in parallel to 8 wells in rows A-H. After a contact time of 15 seconds, the mixtures were quenched by transferring 30 μl volumes of the mixtures into the 270 μl D/E neutralising solution in the prepared dilution plate, using aspiration to mix. After exactly 5 minutes in the D/E neutralising solution, 30 μl volumes were transferred from column 1 to column 2 of the Dilution MTP and mixed, before transferring further 30 μl volumes from column 2 into column 3. This process was repeated serially diluting the bacteria across the plate to column 6.
30 μl volumes from each well in the Dilution MTP were transferred onto pre-labeled segment of Tryptone Soya Agar (TSA) plates starting from the lowest bacterial concentration (highest dilution, column 6) to the highest bacterial concentration (column 1). The TSA plates were allowed to stand for ca. 2 hours so that the 30 μl inocula spots could dry and the plates were then inverted and incubated overnight at 37° C. before enumerating the bacterial colonies at the labeled dilutions to determine the effects of the actives on bacterial growth.
Mean bacterial survival numbers NMBS (expressed in Log CFU/ml) are obtained by first determining the segment of the TSA plate where the number of bacterial colonies is countable. From the colony number in this segment, NMBS is calculated by the formula: […]
Here, Ncol is the colony count, and DF is the dilution factor taken from the MTP-well corresponding to the TSA plate segment (i.e. DF may range from 1 for the quench, to 6 for the highest dilution).

[4] = system: Staphylococcus aureus (10788 strain); assay: as above
[5] = in 2.85% sodium cocoyl glycinate + 1.85% sodium lauroamphoacetate solution at pH 10, E. coli, read-out: MBC (% w/v)

SMILES | SI (Synergy Index = Qa/QA + Qb/QB) [1] | Qb: MBC of the second component (B) acting alone (QB) [1] | MBC [2, 5] [µg/mL] | No. of replicates showing growth (out of 4) ([2]; component alone at 0.2% w/v) | Δ OD 450 nm = OD450 (time = 16 hours) - OD450 (time zero), Mean ([2]; component alone at 0.2% w/v) | Δ OD 590 nm OD590 (time = 16 hours) - OD590 (time zero), Mean ([2]; component alone at 0.2% w/v) | No. of replicates showing growth (out of 4) ([2]; component alone at 0.5% w/v) | Δ OD 450 nm = OD450 (time = 16 hours) - OD450 (time zero), Mean ([2]; component alone at 0.5% w/v) | Δ OD 590 nm OD590 (time = 16 hours) - OD590 (time zero), Mean ([2]; component alone at 0.5% w/v) | No. of replicates showing growth (out of 4) ([2]; component alone at […] w/v) | Log reduction E. coli ATCC 10536 ([3]; component alone at 0.1% w/v) | Log reduction S. aureus ATCC 6538 ([4]; component alone at 0.1% w/v) | further results
C=CC(C)(O)CCC=C(C)C (racemic) [3,7-dimethylocta-1,6-dien-3-ol] | 1.00 | 0.5 weight % | > 5000 | 4 out of 4 | −0.53 | 0.60 | 3 out of 4 | −0.30 | 0.50 | 4 out of 4 | 0.06 | −0.13 | –
CC=Cc1ccccc1O [2-propenylphenol] | – | – | – | – | – | – | – | – | – | – | 1.86 | 1.92 | Log reduction E. coli ATCC 10536 ([3]; component alone at 0.05% w/v): 1.27; Log reduction S. aureus ATCC 6538 ([4]; component alone at 0.05% w/v): −0.18
C/C=C/c1ccccc1O [(E)-2-(prop-1-enyl)phenol] | 1.00 | – | – | 4 out of 4 | −0.53 | 0.63 | – | – | – | 4 out of 4 | – | – | MBC ([2]; pH 10, read-out: MBC (% w/v)): > 2000 µg/mL; No. of replicates showing growth (out of 4) ([2]; component alone at 0.1% w/v): 4 out of 4; Δ OD 450 nm = OD450 (time = 16 hours) - OD450 (time zero), Mean ([2]; component alone at 0.1% w/v): −0.60; Δ OD 590 nm OD590 (time = 16 hours) - OD590 (time zero), Mean ([2]; component alone at 0.1% w/v): 0.59; Δ OD 450 nm = OD450 (time = 16 hours) - OD450 (time zero), Mean ([2]; component alone at […] w/v): −0.57; Δ OD 590 nm OD590 (time = 16 hours) - OD590 (time zero), Mean ([2]; component alone at […] w/v): 0.58
CC(C)=CCC/C(C)=C\CO [cis-3,7-dimethyl-2,6-octadien-1-ol] | 1.00 | 0.25 weight % and 0.3 weight % and 0.5 weight % | > 5000 | 4 out of 4 | −0.53 | 0.60 | 2 out of 4 | −0.14 | 0.40 | – | – | – | No. of replicates showing growth (out of 4) ([2]; component alone at 0.3% w/v): 4 out of 4; Δ OD 450 nm = OD450 (time = 16 hours) - OD450 (time zero), Mean ([2]; component alone at 0.3% w/v): −0.51; Δ OD 590 nm OD590 (time = 16 hours) - OD590 (time zero), Mean ([2]; component alone at 0.3% w/v): 0.61; No. of replicates showing growth (out of 4) ([2]; component alone at 0.4% w/v): 4 out of 4; Δ OD 450 nm = OD450 (time = 16 hours) - OD450 (time zero), Mean ([2]; component alone at 0.4% w/v): −0.48; Δ OD 590 nm OD590 (time = 16 hours) - OD590 (time zero), Mean ([2]; component alone at 0.4% w/v): 0.62
